Measurements published in publication PMC10008561 (Nature Communications, 2023).
Several values for one entry are separate records, joined by “and”; a condition that tells them apart may be missing. Equal values may be shown once. Read-outs that look alike come from different tables or passages of the source.

How the values were obtained:
human KOR (Gz) [1] = target: T1, human KOR (Gz) (Homo sapiens, UniProt P41145, R271A); experiment: cell-based
T1 construct: expressed in transfected cells; host or cells: HEK293T

human KOR (Gz) [2] = target: T2, human KOR (Gz) (Homo sapiens, UniProt P41145, F114L); experiment: cell-based
T2 construct: expressed in transfected cells; host or cells: HEK293T

human KOR (Gz) [3] = target: T3, human KOR (Gz) (Homo sapiens, UniProt P41145, Q115N); experiment: cell-based
T3 construct: expressed in transfected cells; host or cells: HEK293T

human KOR (Gz) [4] = target: T4, human KOR (Gz) (Homo sapiens, UniProt P41145); experiment: cell-based
T4 construct: expressed in transfected cells; host or cells: HEK293T

human KOR (Gz) [5] = target: T5, human KOR (Gz) (Homo sapiens, UniProt P41145, Y139L); experiment: cell-based
T5 construct: expressed in transfected cells; host or cells: HEK293T

human KOR (Gz) [6] = target: T6, human KOR (Gz) (Homo sapiens, UniProt P41145, R170A); experiment: cell-based
T6 construct: expressed in transfected cells; host or cells: HEK293T

human KOR (Gz) [7] = target: T7, human KOR (Gz) (Homo sapiens, UniProt P41145, E297A); experiment: cell-based
T7 construct: expressed in transfected cells; host or cells: HEK293T

human KOR (Gz) [8] = target: T8, human KOR (Gz) (Homo sapiens, UniProt P41145, D155A); experiment: cell-based; conditions: HEK-293T
T8 construct: expressed in transfected cells; host or cells: HEK293T

human KOR (Gz) [9] = target: T9, human KOR (Gz) (Homo sapiens, UniProt P41145, T94V); experiment: cell-based
T9 construct: expressed in transfected cells; host or cells: HEK293T

human KOR (Gz) [10] = target: T10, human KOR (Gz) (Homo sapiens, UniProt P41145, D266A); experiment: cell-based
T10 construct: expressed in transfected cells; host or cells: HEK293T

human KOR (Gz) [11] = target: T11, human KOR (Gz) (Homo sapiens, UniProt P41145, N141A); experiment: cell-based
T11 construct: expressed in transfected cells; host or cells: HEK293T

human KOR (Gz) [12] = target: T12, human KOR (Gz) (Homo sapiens, UniProt P41145, D334A); experiment: cell-based
T12 construct: expressed in transfected cells; host or cells: HEK293T

human KOR (Gz) [13] = target: T13, human KOR (Gz) (Homo sapiens, UniProt P41145, K200A); experiment: cell-based
T13 construct: expressed in transfected cells; host or cells: HEK293T

human KOR (Gz) [14] = target: T14, human KOR (Gz) (Homo sapiens, UniProt P41145, N322A); experiment: cell-based
T14 construct: expressed in transfected cells; host or cells: HEK293T

human KOR (Gz) [15] = target: T15, human KOR (Gz) (Homo sapiens, UniProt P41145, D105A); experiment: cell-based
T15 construct: expressed in transfected cells; host or cells: HEK293T

human KOR (Gz) [16] = target: T16, human KOR (Gz) (Homo sapiens, UniProt P41145, N326A); experiment: cell-based
T16 construct: expressed in transfected cells; host or cells: HEK293T

human KOR (Gz) [17] = target: T17, human KOR (Gz) (Homo sapiens, UniProt P41145, K227A); experiment: cell-based
T17 construct: expressed in transfected cells; host or cells: HEK293T

human KOR (Gz) [18] = target: T18, human KOR (Gz) (Homo sapiens, UniProt P41145, F283A); experiment: cell-based
T18 construct: expressed in transfected cells; host or cells: HEK293T

human KOR (Gz) [19] = target: T19, human KOR (Gz) (Homo sapiens, UniProt P41145, R274A); experiment: cell-based
T19 construct: expressed in transfected cells; host or cells: HEK293T

human KOR (Gz) [20] = target: T20, human KOR (Gz) (Homo sapiens, UniProt P41145, L253A); experiment: cell-based; conditions: HEK-293T
T20 construct: expressed in transfected cells; host or cells: HEK293T

human KOR (Gz) [21] = target: T21, human KOR (Gz) (Homo sapiens, UniProt P41145, G319L); experiment: cell-based
T21 construct: expressed in transfected cells; host or cells: HEK293T

human KOR (Gz) [22] = target: T22, human KOR (Gz) (Homo sapiens, UniProt P41145, Y320L); experiment: cell-based
T22 construct: expressed in transfected cells; host or cells: HEK293T

DOR = DOR (Homo sapiens, UniProt P41143); experiment: Radioligand competition binding (3H-Diprenorphine)
KOR Q115N = KOR Q115N (Homo sapiens, UniProt P41145, Q115N); experiment: cell-based; set-up: TEV cleavage site (C); tTA transcription factor (C); expressed in transfected cells; host or cells: HTLA cells; conditions: read-out: Tango response (Figure S4C), KOR Q115N, Log [Drug], replicate values
human KOR (β-arrestin 1) [23] = target: T23, human KOR (β-arrestin 1) (Homo sapiens, UniProt P41145, T94V); experiment: cell-based; conditions: HEK-293T
T23 construct: expressed in transfected cells; host or cells: HEK293T

human KOR (β-arrestin 1) [24] = target: T24, human KOR (β-arrestin 1) (Homo sapiens, UniProt P41145, K227A); experiment: cell-based; conditions: HEK-293T
T24 construct: expressed in transfected cells; host or cells: HEK293T

human KOR (β-arrestin 1) [25] = target: T25, human KOR (β-arrestin 1) (Homo sapiens, UniProt P41145, E297A); experiment: cell-based; conditions: HEK-293T
T25 construct: expressed in transfected cells; host or cells: HEK293T

human KOR (β-arrestin 1) [26] = target: T26, human KOR (β-arrestin 1) (Homo sapiens, UniProt P41145, R257A); experiment: cell-based; conditions: HEK-293T
T26 construct: expressed in transfected cells; host or cells: HEK293T

human KOR (β-arrestin 1) [27] = target: T27, human KOR (β-arrestin 1) (Homo sapiens, UniProt P41145, R274A); experiment: cell-based; conditions: HEK-293T
T27 construct: expressed in transfected cells; host or cells: HEK293T

human KOR (β-arrestin 1) [28] = target: T28, human KOR (β-arrestin 1) (Homo sapiens, UniProt P41145, R170A); experiment: cell-based; conditions: HEK-293T
T28 construct: expressed in transfected cells; host or cells: HEK293T

human KOR (β-arrestin 1) [29] = target: T29, human KOR (β-arrestin 1) (Homo sapiens, UniProt P41145, R271A); experiment: cell-based; conditions: HEK-293T
T29 construct: expressed in transfected cells; host or cells: HEK293T

MOR = target: T30, MOR (Homo sapiens, UniProt P35372); experiment: BRET-Gi1 protein activation; format: cell-based
T30 construct: expressed in transfected cells; host or cells: HEK293

[30] = HEK-293T, read-out: Gz (Figure 5A concentration-response, replicate values)

KOR Q115N, sequence (P41145 whole entry Q115N): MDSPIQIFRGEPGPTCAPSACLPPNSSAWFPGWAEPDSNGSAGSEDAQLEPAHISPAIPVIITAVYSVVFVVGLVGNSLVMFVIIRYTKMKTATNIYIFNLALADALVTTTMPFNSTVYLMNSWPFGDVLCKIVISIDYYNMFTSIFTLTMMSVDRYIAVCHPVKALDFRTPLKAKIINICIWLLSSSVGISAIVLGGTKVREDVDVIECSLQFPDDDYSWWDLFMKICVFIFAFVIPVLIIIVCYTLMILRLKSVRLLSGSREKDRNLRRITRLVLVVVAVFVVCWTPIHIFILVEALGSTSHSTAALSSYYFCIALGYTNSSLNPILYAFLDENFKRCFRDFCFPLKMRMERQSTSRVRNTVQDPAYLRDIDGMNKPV
KOR Q115N, sequence (P32121 whole entry partner): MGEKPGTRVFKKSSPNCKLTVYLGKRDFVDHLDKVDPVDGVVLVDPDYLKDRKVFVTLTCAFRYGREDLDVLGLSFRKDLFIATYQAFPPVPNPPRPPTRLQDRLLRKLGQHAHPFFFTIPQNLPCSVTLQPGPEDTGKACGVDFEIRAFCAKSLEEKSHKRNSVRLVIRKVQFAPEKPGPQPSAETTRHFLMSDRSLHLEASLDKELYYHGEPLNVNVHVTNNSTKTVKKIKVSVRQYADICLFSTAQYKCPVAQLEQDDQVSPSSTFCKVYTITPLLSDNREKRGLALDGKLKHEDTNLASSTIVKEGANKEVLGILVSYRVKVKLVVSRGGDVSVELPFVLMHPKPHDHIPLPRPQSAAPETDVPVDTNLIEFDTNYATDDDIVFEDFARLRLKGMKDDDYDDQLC
T6 sequence (P41145 whole entry R170A): as the sequence (P41145 whole entry Q115N) above, with N115Q, R170A counted along it
T4 sequence (P41145 whole entry): as the sequence (P41145 whole entry Q115N) above, with N115Q counted along it
T3 sequence (P41145 whole entry Q115N): as the sequence (P41145 whole entry Q115N) above
T7 sequence (P41145 whole entry E297A): as the sequence (P41145 whole entry Q115N) above, with N115Q, E297A counted along it
T13 sequence (P41145 whole entry K200A): as the sequence (P41145 whole entry Q115N) above, with N115Q, K200A counted along it
T14 sequence (P41145 whole entry N322A): as the sequence (P41145 whole entry Q115N) above, with N115Q, N322A counted along it
T2 sequence (P41145 whole entry F114L): as the sequence (P41145 whole entry Q115N) above, with F114L, N115Q counted along it
T19 sequence (P41145 whole entry R274A): as the sequence (P41145 whole entry Q115N) above, with N115Q, R274A counted along it
T1 sequence (P41145 whole entry R271A): as the sequence (P41145 whole entry Q115N) above, with N115Q, R271A counted along it
T22 sequence (P41145 whole entry Y320L): as the sequence (P41145 whole entry Q115N) above, with N115Q, Y320L counted along it
T12 sequence (P41145 whole entry D334A): as the sequence (P41145 whole entry Q115N) above, with N115Q, D334A counted along it
T16 sequence (P41145 whole entry N326A): as the sequence (P41145 whole entry Q115N) above, with N115Q, N326A counted along it
T10 sequence (P41145 whole entry D266A): as the sequence (P41145 whole entry Q115N) above, with N115Q, D266A counted along it
T18 sequence (P41145 whole entry F283A): as the sequence (P41145 whole entry Q115N) above, with N115Q, F283A counted along it
T5 sequence (P41145 whole entry Y139L): as the sequence (P41145 whole entry Q115N) above, with N115Q, Y139L counted along it
T11 sequence (P41145 whole entry N141A): as the sequence (P41145 whole entry Q115N) above, with N115Q, N141A counted along it
T15 sequence (P41145 whole entry D105A): as the sequence (P41145 whole entry Q115N) above, with D105A, N115Q counted along it
T25 sequence (P41145 whole entry E297A): as the sequence (P41145 whole entry Q115N) above, with N115Q, E297A counted along it
T28 sequence (P41145 whole entry R170A): as the sequence (P41145 whole entry Q115N) above, with N115Q, R170A counted along it
T21 sequence (P41145 whole entry G319L): as the sequence (P41145 whole entry Q115N) above, with N115Q, G319L counted along it
DOR, sequence (P41143 whole entry): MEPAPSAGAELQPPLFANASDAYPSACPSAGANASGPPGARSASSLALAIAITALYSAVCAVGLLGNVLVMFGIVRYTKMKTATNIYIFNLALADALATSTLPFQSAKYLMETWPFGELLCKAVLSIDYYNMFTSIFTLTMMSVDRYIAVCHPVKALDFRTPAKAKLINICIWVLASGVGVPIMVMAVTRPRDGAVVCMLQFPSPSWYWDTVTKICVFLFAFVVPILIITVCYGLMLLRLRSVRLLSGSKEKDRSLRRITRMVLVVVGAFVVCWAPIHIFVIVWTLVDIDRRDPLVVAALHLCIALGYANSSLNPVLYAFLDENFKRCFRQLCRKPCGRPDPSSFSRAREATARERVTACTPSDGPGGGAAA
T27 sequence (P41145 whole entry R274A): as the sequence (P41145 whole entry Q115N) above, with N115Q, R274A counted along it
T29 sequence (P41145 whole entry R271A): as the sequence (P41145 whole entry Q115N) above, with N115Q, R271A counted along it
T20 sequence (P41145 whole entry L253A): as the sequence (P41145 whole entry Q115N) above, with N115Q, L253A counted along it
T30 sequence (P35372 whole entry): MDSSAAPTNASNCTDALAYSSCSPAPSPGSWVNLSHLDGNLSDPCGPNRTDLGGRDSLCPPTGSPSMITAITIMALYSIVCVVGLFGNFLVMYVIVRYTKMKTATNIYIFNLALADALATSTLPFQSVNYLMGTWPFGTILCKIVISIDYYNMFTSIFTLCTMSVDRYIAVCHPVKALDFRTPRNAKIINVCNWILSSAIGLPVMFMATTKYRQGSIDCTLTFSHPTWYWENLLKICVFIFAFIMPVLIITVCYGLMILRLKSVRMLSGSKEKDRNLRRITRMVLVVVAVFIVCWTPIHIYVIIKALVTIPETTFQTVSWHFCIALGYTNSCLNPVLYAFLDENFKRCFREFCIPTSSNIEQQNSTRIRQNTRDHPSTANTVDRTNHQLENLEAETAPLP
T8 sequence (P41145 whole entry D155A): as the sequence (P41145 whole entry Q115N) above, with N115Q, D155A counted along it
T26 sequence (P41145 whole entry R257A): as the sequence (P41145 whole entry Q115N) above, with N115Q, R257A counted along it
T17 sequence (P41145 whole entry K227A): as the sequence (P41145 whole entry Q115N) above, with N115Q, K227A counted along it
T24 sequence (P41145 whole entry K227A): as the sequence (P41145 whole entry Q115N) above, with N115Q, K227A counted along it
T9 sequence (P41145 whole entry T94V): as the sequence (P41145 whole entry Q115N) above, with T94V, N115Q counted along it
T23 sequence (P41145 whole entry T94V): as the sequence (P41145 whole entry Q115N) above, with T94V, N115Q counted along it

## CN(C(=O)/C=C/c1ccoc1)[C@@H]1CC[C@@]2(O)[C@H]3Cc4ccc(O)c5c4[C@@]2(CCN3CC2CC2)[C@H]1O5 [Nalfurafine, nalfurafine]
Human KOR (Gz) [1]
  FC vs wild type: 398
Human KOR (Gz) [1]; HEK-293T
  Emax: 110%
Human KOR (Gz) [2]
  FC vs wild type: 54
Human KOR (Gz) [2]; HEK-293T
  Emax: 85.6%
Human KOR (Gz) [3]
  FC vs wild type: 39
Human KOR (Gz) [3]; HEK-293T
  Emax: 78.7%
Human KOR (Gz) [4]
  Emax%: 96.48%
  FC vs wild type: 1
Human KOR (Gz) [4]; HEK-293T
  Emax: 96.7%
Human KOR (Gz) [4]; [30]
  activation at 10 pM: 45.5%
  activation at 0.1 µM: 99.7%
  activation at 1 µM: 111%
  activation at 10 µM: 97.8%
Human KOR (Gz) [5]
  FC vs wild type: 4
Human KOR (Gz) [5]; HEK-293T
  Emax: 103%
Human KOR (Gz) [6]
  FC vs wild type: 13 and ~10
Human KOR (Gz) [6]; HEK-293T
  Emax: 96%
Human KOR (Gz) [7]
  FC vs wild type: 1
Human KOR (Gz) [7]; HEK-293T
  Emax: 103%
Human KOR (Gz) [8]
  Emax: 92.7%
Human KOR (Gz) [9]
  FC vs wild type: 6
Human KOR (Gz) [10]
  FC vs wild type: 1259
Human KOR (Gz) [10]; HEK-293T
  Emax: 112%
Human KOR (Gz) [11]
  FC vs wild type: 93
Human KOR (Gz) [11]; HEK-293T
  Emax: 98.3%
Human KOR (Gz) [12]
  FC vs wild type: 112
Human KOR (Gz) [12]; HEK-293T
  Emax: 99.2%
Human KOR (Gz) [13]
  FC vs wild type: 9
Human KOR (Gz) [13]; HEK-293T
  Emax: 108%
Human KOR (Gz) [14]
  FC vs wild type: 1259
Human KOR (Gz) [14]; HEK-293T
  Emax: 81.8%
Human KOR (Gz) [15]
  FC vs wild type: 479
Human KOR (Gz) [15]; HEK-293T
  Emax: 103%
Human KOR (Gz) [16]
  FC vs wild type: 69
Human KOR (Gz) [16]; HEK-293T
  Emax: 96.9%
Human KOR (Gz) [17]
  FC vs wild type: 3
Human KOR (Gz) [18]
  FC vs wild type: 44
Human KOR (Gz) [18]; HEK-293T
  Emax: 106%
Human KOR (Gz) [19]
  FC vs wild type: 977
Human KOR (Gz) [19]; HEK-293T
  Emax: 99.1%
Human KOR (Gz) [20]
  Emax: 112%
Human KOR (Gz) [21]
  FC vs wild type: 162
Human KOR (Gz) [22]
  FC vs wild type: 407
Human KOR (Gz) [22]; HEK-293T
  Emax: 93.7%
DOR
  Ki: 0.427 nM
KOR Q115N; M -5
  activation at 10 µM: 106%
KOR Q115N; M -6.5
  activation at […]: 92.3%
KOR Q115N; M -7
  activation at 0.1 µM: 92.6%
KOR Q115N; M -7.5
  activation at […]: 76.8%
KOR Q115N; M -8
  activation at 0.01 µM: 80.2%
KOR Q115N; M -8.5
  activation at […]: 39%
Human KOR (β-arrestin 1) [23]
  Emax: 73.2%
Human KOR (β-arrestin 1) [24]
  Emax: 77.5%
Human KOR (β-arrestin 1) [25]
  Emax: 101%
Human KOR (β-arrestin 1) [26]
  Emax: 103%
Human KOR (β-arrestin 1) [27]
  Emax: 78.7%
Human KOR (β-arrestin 1) [28]
  Emax: 81.8%
Human KOR (β-arrestin 1) [29]
  Emax: 101%
MOR
  EC50: 5.13 nM
